Assay results taken from patent publication EP4417607A1, “HETEROCYCLIC COMPOUND AS SOS1 INHIBITOR AND USES THEREOF” (Nanjing Zaiming Pharmaceutical Co., Ltd., priority 2021, dated 2023).
pIC50: −log10 of the molar value.

Legend:
H358 cells = assay: H358 cell proliferation inhibition (CellTiter-Glo luminescent cell viability assay); assay type: cell-based; conditions: Homo sapiens, NCI-H358, 168 h, 7 days
Description: The effect of the compounds of the present invention on H358 cell proliferation was assessed by CellTiter-Glo luminescent cell viability assay kit method.
H358 cells (ATCC, CRL-5807) were cultured in RPMI1640 (Hyclone, SH30256.01) complete medium containing 10% FBS (Gibco, 10100147) and 100 U/mL penicillin-streptomycin mixed solution (Gibco, 15140163). When the cells grew to 80-90%, the cells were digested, pipetted, and seeded in a 96-well plate (Corning, 4515) at 3000 cells/well (180 µL RPMI1640 complete medium), and then the 96-well plate was incubated overnight in an incubator at 37 °C with 5% CO2.
After incubation overnight, 20 µL of a diluted test compound was added to each well using a multi-channel pipette, and the 96-well plate was placed in an incubator at 37 °C with 5% CO2 for further culture. After 7 days, 100 µL of the supernatant was pipetted and discarded. 50 µL of CellTiter-Glo® 3D Cell Viability Assay liquid was added to each well. The plate was shaken at room temperature at 450 rpm for 30 min. After the cells were completely lysed, "Luminescence" on the microplate reader was selected for plate reading. In this experiment, the cell-free group (replaced with 1640 medium) was used as the 100% inhibition group, and the compound-free group in which the cell was added was used as the 0% inhibition group.
The inhibition percentage of H358 cell proliferation by the compounds of the present invention could be calculated by the following formula: [formula]
IC50 values of the compounds were calculated from 8 concentration points using XLfit (ID Business Solutions Ltd., UK) software by the following formula: Y = Bottom + (Top−Bottom)/(1+10^(∧)((logIC50−X)×slopefactor)) [formula]
Y is the inhibition percentage, X is the logarithmic value of the concentration of the test compound, Bottom is the minimum inhibition percentage, Top is the maximum inhibition percentage, and slope factor is the slope coefficient of the curve.

[1] = system: p-ERK pathway in H358 cells; assay: p-ERK pathway inhibition in H358 cells (Advanced phospho-ERK (Thr202/Tyr204) cellular kit, HTRF); assay type: cell-based; conditions: Homo sapiens, NCI-H358, 1 h compound incubation
In short: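 IC50 from an 8-point four-parameter fit of % inhibition of ERK Thr202/Tyr204 phosphorylation, measured by HTRF 665/620 ratio in lysates. H358 cells were seeded at 50000/well, starved overnight without serum, and exposed to compound 1 h at 37 °C; controls were cell-free (100%) and untreated (0%).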

SMILES | pIC50 (H358 cells) | pIC50 [1]
Cc1nc(N[C@H](C)c2cccc(C(F)F)c2F)c2cn(C3(CF)CC3)c(=O)c(N3CCOCC3(C)C)c2n1 [Example 52, (R)-4-((1-(3-(difluoromethyl)-2-fluorophenyl)ethyl)amino)-8-(3,3-dimethylmorpholine) -6-(1-(fluoromethyl)cyclopropyl)-2-methylpyrido[4,3-d]pyrimidine-7(6H)-one] | 7.58 | 7.38
[2H]C([2H])([2H])Oc1c(=O)n(C2(CF)CC2)cc2c(N[C@H](C)c3cccc([N+](=O)[O-])c3C)nc(C)nc12 [Example 30, (R)-6-(1-(fluoromethyl)cyclopropyl)-8-(methoxy-d3)-2-methyl-4-((1-(2-methyl-3-nitrophenyl)ethyl)amino)pyrido[4,3-d]pyrimidine-7(6H)-one] | 7.47 | 7.53
Cc1nc(N[C@H](C)c2cccc(C#N)c2C)c2cn(N3CCOCC3)c(=O)c(N3CCOC[C@@H]3C)c2n1 [Example 110, 2-methyl-3-((R)-1-((2-methyl-8-((S)-3-methylmorpholine)-6-morpholine-7-oxo-6,7-dihydropyrido[4,3-d]pyrimidin-4-yl)amino)ethyl)benzonitrile] | 7.30 | 7.13
Cc1nc(N[C@H](C)c2cccc(C(F)F)c2F)c2cn(C3(CF)CC3)c(=O)c(N3CCN(CC4COC4)CC3)c2n1 [Example 133, (R)-4-((1-(3-(difluoromethyl)-2-fluorophenyl)ethyl)amino)-6-(1-(fluoromethyl)cyclopropyl)-2-methyl-8-(4-(oxetan-3-ylmethyl)piperazin-1-yl)pyrido[4,3-d]pyrimidine-7(6H)-one] | 7.46 | 7.15
Cc1nc(N[C@H](C)c2cccc(C(F)F)c2F)c2cn(C3(CF)CC3)c(=O)c(OCc3ccccn3)c2n1 [Example 122, (R)-4-((1-(3-(difluoromethyl)-2-fluorophenyl)ethyl)amino)-6-(1-(fluoromethyl)cyclopropyl)-2-methyl-8-(pyridin-2-ylmethoxy)pyrido[4,3-d]pyrimidine-7(6H)-one] | 6.99 | 6.95
Cc1nc(N[C@H](C)c2cccc(C(C)(F)F)c2F)c2cn(C3(CF)CC3)c(=O)c(N3CCOC[C@@H]3C)c2n1 [Example 114, 4-(((R)-1-(3-(1,1-difluoroethyl)-2-fluorophenyl)ethyl)amino)-6-(1-(fluoromethyl)cyclopropyl)-2-methyl-8-((S)-3-methylmorpholine)pyrido[4,3-d]pyrimidine-7(6H)-one] | 7.61 | 7.26
Cc1nc(N[C@H](C)c2cccc(C#N)c2C)c2cn(C3(CF)CC3)c(=O)c(N3CCOCC3)c2n1 [Example 47] | 7.63 | 7.43

Continued, values first:

pIC50 (H358 cells) | pIC50 [1] | SMILES
7.19 | 7.23 | Cc1nc(N[C@H](C)c2cccc(C(F)F)c2F)c2cn(C3(CF)CC3)c(=O)c(N3CCOC[C@@H]3CO)c2n1 [Example 135, 4-(((R)-1-(3-(difluoromethyl)-2-fluorophenyl)ethyl)amino)-6-(1-(fluoromethyl)cyclopropyl)-8-((S)-3-(hydroxymethyl)morpholinyl)-2-methylpyrido[4,3-d]pyrimidine-7(6H)-one]
7.37 | 7.10 | Cc1nc(N[C@H](C)c2cccc(C(F)F)c2F)c2cn(C3(CF)CC3)c(=O)c(N3CCOC[C@@H]3CF)c2n1 [Example 136, 4-(((R)-1-(3-(difluoromethyl)-2-fluorophenyl)ethyl)amino)-6-(1-(fluoromethyl)cyclopropyl)-8-((R)-3-(fluoromethyl)morpholinyl)-2-methylpyrido[4,3-d]pyrimidine-7(6H)-one]
7.16 | 7.37 | COC1(c2c(=O)n(C3(CF)CC3)cc3c(N[C@H](C)c4cccc(C(F)F)c4F)nc(C)nc23)COC1 [Example 150, (R)-4-((1-(3-(difluoromethyl)-2-fluorophenyl)ethyl)amino)-6-(1-(fluoromethyl)cyclopropyl)-8-(3-methoxyoxetan-3-yl)-2-methylpyrido[4,3-d]pyrimidine-7(6H)-one]
